PMC3798605, “Independent Pathways Can Transduce the Life-Cycle Differentiation Signal in Trypanosoma brucei” (PLoS Pathogens, 2013)

Target: T1, TbPTP1/TbPIP39 (Trypanosoma brucei, UniProt Q38AT7+Q38EW0)
T1 construct: gene Tb10.70.0070; His-TbPTP1 plus GST-TbPIP39 (recoded synthetic gene, pGEX4T1); biophysical preparations described in supplement
T1 sequence (Q38AT7 1-306): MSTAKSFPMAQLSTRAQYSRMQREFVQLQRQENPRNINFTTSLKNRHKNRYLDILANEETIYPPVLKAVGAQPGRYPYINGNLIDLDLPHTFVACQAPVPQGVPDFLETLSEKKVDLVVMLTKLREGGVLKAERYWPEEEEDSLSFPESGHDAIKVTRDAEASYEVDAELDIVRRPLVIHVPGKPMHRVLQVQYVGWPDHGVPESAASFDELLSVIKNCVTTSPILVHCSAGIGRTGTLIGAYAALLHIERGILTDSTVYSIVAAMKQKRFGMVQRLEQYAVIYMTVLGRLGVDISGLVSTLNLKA
T1 sequence (Q38EW0 1-343): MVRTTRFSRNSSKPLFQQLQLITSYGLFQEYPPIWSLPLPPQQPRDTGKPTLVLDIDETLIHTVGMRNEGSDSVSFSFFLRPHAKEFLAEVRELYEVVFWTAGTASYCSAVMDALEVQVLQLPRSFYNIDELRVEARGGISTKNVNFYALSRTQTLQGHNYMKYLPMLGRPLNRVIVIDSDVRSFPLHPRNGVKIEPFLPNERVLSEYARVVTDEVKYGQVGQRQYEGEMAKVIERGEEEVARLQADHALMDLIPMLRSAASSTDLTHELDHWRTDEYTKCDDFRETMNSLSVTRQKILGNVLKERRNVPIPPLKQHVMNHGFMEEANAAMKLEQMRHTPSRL
Experiment: SPR, ligand-dependent TbPTP1-TbPIP39 interaction
Assay type: binding
Settings: isocitrate-promoted complex formation, indirect evidence; TbPTP1 immobilised

With O=C(O)C[C@H](C(=O)O)[C@@H](O)C(=O)O [isocitrate] the “SPR, ligand-dependent TbPTP1-TbPIP39 interaction” value was “isocitrate, which does not stimulate differentiation, also promoted the interaction between TbPTP1 and wild type”.
